Patent publication US20230143604A1, “QW DOSING OF GIP RECEPTOR AGONIST PEPTIDE COMPOUNDS AND USES THEREOF” (TAKEDA PHARMACEUTICAL COMPANY LIMITED, priority 2020, published 2023)
Starred links: 1 amine or outer side, 2 acyl side, 3 side chain; linkers in the order of their positions; H or OH if unused. Positions of bridges follow the written chain, without caps; N, C: chain ends. Non-standard residues stand in square brackets, D forms with d. Residues, ends and D or L forms follow the SMILES beside them. Groups on a side chain read outwards from the residue. Chains are numbered I, II in the order given. *: point of attachment. C18 diacid = O=C(O)CCCCCCCCCCCCCCCCC(=O)*; C17 diacid = O=C(O)CCCCCCCCCCCCCCCC(=O)*; γGlu = O=C(O)[C@H](CCC(=O)[*:2])N[*:1]; NMeY = CN[C@@H](Cc1ccc(O)cc1)C(=O)O; AEEA = NCCOCCOCC(=O)O; Aib = CC(C)(N)C(=O)O

Assay: Solubility in phosphate buffer pH 7.4
How it was run: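 3 mg of peptide treated with 100 μL portions of 200 mM phosphate buffer pH 7.4, sonicating/vortexing up to 1 min, with further buffer added until fully dissolved. Solubility then quantified by HPLC.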

[1] = pH 7.4, aqueous buffer, pH 7.4 Phosphate Buffer - Solubility, 200 mM Phosphate buffer pH 7.4
[2] = pH 7.4, solubility in phosphate buffer at pH 7.4, 200 mM phosphate buffer pH 7.4

Row | SMILES | solubility [1] | solubility [2] | solubility (pH 7.4) | solubility (pH 7.4, aqueous buffer)
1 | CC[C@H](C)[C@H](NC(=O)[C@H](CCCCN)NC(=O)[C@H](CC(=O)O)NC(=O)[C@H](CC(C)C)NC(=O)[C@H](C)NC(=O)[C@@H](NC(=O)[C@H](CO)NC(=O)[C@H](Cc1ccc(O)cc1)NC(=O)[C@H](CC(=O)O)NC(=O)[C@H](CO)NC(=O)[C@@H](NC(=O)[C@H](Cc1ccccc1)NC(=O)[C@@H](NC(=O)CNC(=O)[C@H](CCC(=O)O)NC(=O)C(C)(C)NC(=O)[C@@H](N)Cc1ccc(O)cc1)[C@@H](C)O)[C@@H](C)CC)[C@@H](C)CC)C(=O)N[C@@H](C)C(=O)N[C@@H](CCC(N)=O)C(=O)N[C@@H](CCC(N)=O)C(=O)N[C@@H](CCCCNC(=O)COCCOCCNC(=O)COCCOCCNC(=O)CC[C@H](NC(=O)CC[C@H](NC(=O)CCCCCCCCCCCCCCCC(=O)O)C(=O)O)C(=O)O)C(=O)N[C@@H](Cc1ccccc1)C(=O)N[C@H](C(=O)N[C@@H](CCC(=O)O)C(=O)N[C@@H](Cc1c[nH]c2ccccc12)C(=O)N[C@@H](CC(C)C)C(=O)N[C@@H](CC(C)C)C(=O)N[C@@H](C)C(=O)N[C@@H](CCC(N)=O)C(=O)N[C@@H](CCCNC(=N)N)C(=O)N1CCC[C@H]1C(=O)N[C@@H](CO)C(=O)N[C@@H](CO)C(=O)NCC(=O)N[C@@H](C)C(=O)N1CCC[C@H]1C(=O)N1CCC[C@H]1C(=O)N1CCC[C@H]1C(=O)N[C@@H](CO)C(=O)O)C(C)C [Compound 134] (H-Y[Aib]EGTFISDYSIALDKIAQQK([AEEA-AEEA-γGlu-γGlu-C17 diacid])FVEWLLAQRPSSGAPPPS-OH) | ≥ 30 mg/mL | ≥ 15 mg/mL | – | –
2 | CC[C@H](C)[C@H](NC(=O)[C@H](CCCCN)NC(=O)[C@H](CC(=O)O)NC(=O)[C@H](CC(C)C)NC(=O)[C@H](C)NC(=O)[C@@H](NC(=O)[C@H](CO)NC(=O)[C@H](Cc1ccc(O)cc1)NC(=O)[C@H](CC(=O)O)NC(=O)[C@H](CO)NC(=O)[C@@H](NC(=O)[C@H](Cc1ccccc1)NC(=O)[C@@H](NC(=O)CNC(=O)[C@H](CCC(=O)O)NC(=O)C(C)(C)NC(=O)[C@@H](N)Cc1ccc(O)cc1)[C@@H](C)O)[C@@H](C)CC)[C@@H](C)CC)C(=O)N[C@@H](C)C(=O)N[C@@H](CCC(N)=O)C(=O)N[C@@H](CCCNC(=N)N)C(=O)N[C@@H](CCCCNC(=O)COCCOCCNC(=O)COCCOCCNC(=O)CC[C@H](NC(=O)CC[C@H](NC(=O)CCCCCCCCCCCCCCCC(=O)O)C(=O)O)C(=O)O)C(=O)N[C@@H](Cc1ccccc1)C(=O)N[C@H](C(=O)N[C@@H](CCC(=O)O)C(=O)N[C@@H](Cc1c[nH]c2ccccc12)C(=O)N[C@@H](CC(C)C)C(=O)N[C@@H](CC(C)C)C(=O)N[C@@H](C)C(=O)N[C@@H](CCC(N)=O)C(=O)N[C@@H](CCCNC(=N)N)C(=O)N1CCC[C@H]1C(=O)N[C@@H](CO)C(=O)N[C@@H](CO)C(=O)NCC(=O)N[C@@H](C)C(=O)N1CCC[C@H]1C(=O)N1CCC[C@H]1C(=O)N1CCC[C@H]1C(=O)N[C@@H](CO)C(=O)O)C(C)C [Compound 135] (H-Y[Aib]EGTFISDYSIALDKIAQRK([AEEA-AEEA-γGlu-γGlu-C17 diacid])FVEWLLAQRPSSGAPPPS-OH) | ≥ 30 mg/mL | ≥ 15 mg/mL | – | –
3 | CC[C@H](C)[C@H](NC(=O)[C@H](CO)NC(=O)[C@H](Cc1ccc(O)cc1)NC(=O)[C@H](CC(=O)O)NC(=O)[C@H](CO)NC(=O)[C@@H](NC(=O)[C@H](Cc1ccccc1)NC(=O)[C@@H](NC(=O)CNC(=O)[C@H](CCC(=O)O)NC(=O)C(C)(C)NC(=O)[C@H](Cc1ccc(O)cc1)NC)[C@@H](C)O)[C@@H](C)CC)C(=O)N[C@@H](C)C(=O)N[C@@H](CC(C)C)C(=O)N[C@@H](CC(=O)O)C(=O)N[C@@H](CCCNC(=N)N)C(=O)NC(C)(C)C(=O)N[C@@H](CCCCNC(=O)CNC(=O)CNC(=O)[C@@H]1CCCN1C(=O)[C@H](C)NC(=O)[C@@H]1CCCN1C(=O)[C@H](C)NC(=O)[C@@H]1CCCN1C(=O)CC[C@H](NC(=O)CCCCCCCCCCCCCCCCC(=O)O)C(=O)O)C(=O)N[C@@H](CCC(N)=O)C(=O)NC(C)(C)C(=O)N[C@@H](CC(=O)O)C(=O)N[C@@H](Cc1ccccc1)C(=O)N[C@H](C(=O)N[C@@H](CC(N)=O)C(=O)N[C@@H](Cc1c[nH]c2ccccc12)C(=O)N[C@@H](CC(C)C)C(=O)N[C@@H](CC(C)C)C(=O)N[C@@H](C)C(=O)N[C@@H](CCC(N)=O)C(=O)N[C@@H](CO)C(=O)N1CCC[C@H]1C(=O)NCC(=O)O)C(C)C [Compound 136] (I: H-[NMeY][Aib]EGTFISDYSIALDR[Aib]KQ[Aib]DFVNWLLAQSPG-OH / II: {C18 diacid-γGlu}-PAPAPGG; amide I:18-II:C) | – | – | ≥ 15 mg/mL | ≥ 30 mg/mL
4 | CC[C@H](C)[C@H](NC(=O)[C@H](CO)NC(=O)[C@H](Cc1ccc(O)cc1)NC(=O)[C@H](CC(=O)O)NC(=O)[C@H](CO)NC(=O)[C@@H](NC(=O)[C@H](Cc1ccccc1)NC(=O)[C@@H](NC(=O)CNC(=O)[C@H](CCC(=O)O)NC(=O)C(C)(C)NC(=O)[C@@H](N)Cc1ccc(O)cc1)[C@@H](C)O)[C@@H](C)CC)C(=O)N[C@@H](C)C(=O)N[C@@H](CC(C)C)C(=O)N[C@@H](CC(=O)O)C(=O)N[C@@H](CCCNC(=N)N)C(=O)NC(C)(C)C(=O)N[C@@H](C)C(=O)N[C@@H](CCC(N)=O)C(=O)NC(C)(C)C(=O)N[C@@H](CCCCNC(=O)COCCOCCNC(=O)COCCOCCNC(=O)CC[C@H](NC(=O)CC[C@H](NC(=O)CCCCCCCCCCCCCCCC(=O)O)C(=O)O)C(=O)O)C(=O)N[C@@H](Cc1ccccc1)C(=O)N[C@H](C(=O)N[C@@H](CC(N)=O)C(=O)N[C@@H](Cc1c[nH]c2ccccc12)C(=O)N[C@@H](CC(C)C)C(=O)N[C@@H](CC(C)C)C(=O)N[C@@H](C)C(=O)N[C@@H](CCC(N)=O)C(=O)N[C@@H](CCCNC(=N)N)C(=O)NCC(=O)O)C(C)C [Compound 140] (H-Y[Aib]EGTFISDYSIALDR[Aib]AQ[Aib]K([AEEA-AEEA-γGlu-γGlu-C17 diacid])FVNWLLAQRG-OH) | – | – | ≥ 15 mg/mL | ≥ 30 mg/mL
5 | CC[C@H](C)[C@H](NC(=O)[C@H](Cc1ccccc1)NC(=O)[C@@H](NC(=O)CNC(=O)[C@H](CCC(=O)O)NC(=O)C(C)(C)NC(=O)[C@@H](N)Cc1ccc(O)cc1)[C@@H](C)O)C(=O)N[C@@H](CO)C(=O)N[C@@H](CC(=O)O)C(=O)N[C@@H](Cc1ccc(O)cc1)C(=O)N[C@@H](CO)C(=O)N[C@H](C(=O)NC(C)(C)C(=O)N[C@@H](CC(C)C)C(=O)N[C@@H](CC(=O)O)C(=O)N[C@@H](CCCNC(=N)N)C(=O)NC(C)(C)C(=O)N[C@@H](C)C(=O)N[C@@H](CCC(N)=O)C(=O)NC(C)(C)C(=O)N[C@@H](CCCCNC(=O)COCCOCCNC(=O)COCCOCCNC(=O)CC[C@H](NC(=O)CC[C@H](NC(=O)CCCCCCCCCCCCCCCCC(=O)O)C(=O)O)C(=O)O)C(=O)N[C@@H](Cc1ccccc1)C(=O)N[C@H](C(=O)N[C@@H](CC(N)=O)C(=O)N[C@@H](Cc1c[nH]c2ccccc12)C(=O)N[C@@H](CC(C)C)C(=O)N[C@@H](CC(C)C)C(=O)N[C@@H](C)C(=O)N[C@@H](CCC(N)=O)C(=O)N[C@@H](CCCNC(=N)N)C(=O)NCC(=O)O)C(C)C)[C@@H](C)CC [Compound 141] (H-Y[Aib]EGTFISDYSI[Aib]LDR[Aib]AQ[Aib]K([AEEA-AEEA-γGlu-γGlu-C18 diacid])FVNWLLAQRG-OH) | – | – | ≥ 15 mg/mL | ≥ 30 mg/mL
6 | CC[C@H](C)[C@H](NC(=O)[C@H](CCCCN)NC(=O)[C@H](CC(=O)O)NC(=O)[C@H](CC(C)C)NC(=O)[C@H](C)NC(=O)[C@@H](NC(=O)[C@H](CO)NC(=O)[C@H](Cc1ccc(O)cc1)NC(=O)[C@H](CC(=O)O)NC(=O)[C@H](CO)NC(=O)[C@@H](NC(=O)[C@H](Cc1ccccc1)NC(=O)[C@@H](NC(=O)CNC(=O)[C@H](CCC(=O)O)NC(=O)C(C)(C)NC(=O)[C@@H](N)Cc1ccc(O)cc1)[C@@H](C)O)[C@@H](C)CC)[C@@H](C)CC)C(=O)N[C@@H](C)C(=O)N[C@@H](CCC(N)=O)C(=O)N[C@@H](CCC(N)=O)C(=O)N[C@@H](CCCCNC(=O)COCCOCCNC(=O)COCCOCCNC(=O)CC[C@H](NC(=O)CC[C@H](NC(=O)CCCCCCCCCCCCCCCC(=O)O)C(=O)O)C(=O)O)C(=O)N[C@@H](Cc1ccccc1)C(=O)N[C@H](C(=O)N[C@@H](CCC(=O)O)C(=O)N[C@@H](Cc1c[nH]c2ccccc12)C(=O)N[C@@H](CC(C)C)C(=O)N[C@@H](CC(C)C)C(=O)N[C@@H](C)C(=O)N[C@@H](CCC(N)=O)C(=O)N[C@@H](CCCNC(=N)N)C(=O)NCC(=O)O)C(C)C [Compound 142] (H-Y[Aib]EGTFISDYSIALDKIAQQK([AEEA-AEEA-γGlu-γGlu-C17 diacid])FVEWLLAQRG-OH) | – | – | ≥ 15 mg/mL | ≥ 30 mg/mL
7 | CC[C@H](C)[C@H](NC(=O)[C@H](CCCCN)NC(=O)[C@H](CC(=O)O)NC(=O)[C@H](CC(C)C)NC(=O)[C@H](C)NC(=O)[C@@H](NC(=O)[C@H](CO)NC(=O)[C@H](Cc1ccc(O)cc1)NC(=O)[C@H](CC(=O)O)NC(=O)[C@H](CO)NC(=O)[C@@H](NC(=O)[C@H](Cc1ccccc1)NC(=O)[C@@H](NC(=O)CNC(=O)[C@H](CCC(=O)O)NC(=O)C(C)(C)NC(=O)[C@@H](N)Cc1ccc(O)cc1)[C@@H](C)O)[C@@H](C)CC)[C@@H](C)CC)C(=O)N[C@@H](C)C(=O)N[C@@H](CCC(N)=O)C(=O)N[C@@H](CCCNC(=N)N)C(=O)N[C@@H](CCCCNC(=O)COCCOCCNC(=O)COCCOCCNC(=O)CC[C@H](NC(=O)CC[C@H](NC(=O)CCCCCCCCCCCCCCCC(=O)O)C(=O)O)C(=O)O)C(=O)N[C@@H](Cc1ccccc1)C(=O)N[C@H](C(=O)N[C@@H](CCC(=O)O)C(=O)N[C@@H](Cc1c[nH]c2ccccc12)C(=O)N[C@@H](CC(C)C)C(=O)N[C@@H](CC(C)C)C(=O)N[C@@H](C)C(=O)N[C@@H](CCC(N)=O)C(=O)N[C@@H](CCCNC(=N)N)C(=O)NCC(=O)O)C(C)C [Compound 143] (H-Y[Aib]EGTFISDYSIALDKIAQRK([AEEA-AEEA-γGlu-γGlu-C17 diacid])FVEWLLAQRG-OH) | – | – | ≥ 15 mg/mL | ≥ 30 mg/mL
